Data on eight molecules can be found in patent US11267794B2, “Benzothia(di)azepine compounds and their use as bile acid modulators” (Albireo AB, priority 2019, dated 2022).

Like-named read-outs stand apart in the source and are kept apart here.

For series [1], the system named is Caco-2 cells. Briefly: Bidirectional permeability assay (Caco-2 cells). The conditions noted are these: FaSSIF buffer, 120 minutes at 37° C.; for Permeability (Caco-2) Papp A2B: absorptive direction (A2B); for Permeability (Caco-2) Papp B2A: secretory direction (B2A). For orientation: Passage across Caco-2 layers is used to estimate intestinal permeability.
Experimental: (§2) Caco-2 cells (Evotec) were seeded at a density of 70,000 cells/well in Millicell® 24-well cell culture insert plates and maintained in an incubator (37° C., 5% CO2, 95% RH) for 21 days with media change on alternate days.
(§3) Stock solutions (10 mM) of the test compounds, atenolol (low permeability marker), propranolol (high permeability marker) and digoxin (substrate for P-gp transport pathway) were prepared in dimethylsulfoxide (DMSO). An intermediate stock solution (1 mM) was prepared by diluting 10 μL of 10 mM master stock solution with 90 μL of neat DMSO. A working stock solution (10 μM) was prepared by diluting 50 μL of 1 mM with 4950 μL of FaSSIF buffer. Post addition of compounds to the FaSSIF, samples were subjected to sonication for 2 hours, and centrifuged at 4000 RPM for 30 minutes at 37° C. The 4 mL of resultant supernatant was directly used in the assay. The final DMSO concentration in the transport experiments was 1%.
(§4) On the day of assay, Caco-2 monolayers were washed twice with transport buffer (HBSS, pH 7.4) and pre-incubated for 30 min (37° C., 5% CO2, 95% RH) in an incubator. The electrical resistance of the monolayers was measured with a Millicell®—ERS system. Monolayers with trans-epithelial electrical resistance (TEER) values greater than 350 ohm·cm^2 were selected for the assay.
(§5) The assay was conducted in absorptive direction (A2B) and secretory (B2A) directions. Transport experiments were initiated by addition of transport assay buffer (FaSSIF buffer prepared in HBSS) consisting of compounds to the donor compartment (apical chamber A-B; basolateral chamber B-A) in duplicate (n=2) wells. Drug free HBSS buffer (pH 7.4) containing 1% bovine serum albumin (BSA) was introduced to the receiver (A-B-basolateral; B-A-Apical) compartments. The volumes of apical and basolateral compartments were 0.4 and 0.8 mL, respectively. After adding dosing solution, plates were incubated in an incubator for 120 minutes at 37° C. After 120 minutes, donor and receiver samples were collected and matrix matched (1:1, 30 μL study sample+30 μL blank buffer) with the opposite buffer. Dosing samples matrix matched (1:1, 30 μL study sample+30 μL blank buffer) with the opposite buffer. Samples were processed by adding acetonitrile containing internal standard (60 μL study sample+200 μL acetonitrile containing internal standard—Tolbutamide, 500 ng/mL). Samples were vortexed and centrifuged at 4000 rpm for 10 minutes. The obtained supernatant (100 μL) was diluted with 100 μL of water and transferred to fresh 96 well plates. The concentration of compounds in the samples was analyzed by liquid chromatography tandem mass spectrometry (LC-MS/MS) method using discovery grade bio-analytical method, as applicable.
(§6) The mean apparent permeability (Papp, ×10^−6 cm/sec) of the test compounds, atenolol, propranolol and digoxin were calculated as follows:
In a further series the target is T1, hIBAT (Homo sapiens, UniProt Q12908).
T1 construct: expressed in transfected cells; kept under Puromycin selection
T1 sequence (Q12908 1-348): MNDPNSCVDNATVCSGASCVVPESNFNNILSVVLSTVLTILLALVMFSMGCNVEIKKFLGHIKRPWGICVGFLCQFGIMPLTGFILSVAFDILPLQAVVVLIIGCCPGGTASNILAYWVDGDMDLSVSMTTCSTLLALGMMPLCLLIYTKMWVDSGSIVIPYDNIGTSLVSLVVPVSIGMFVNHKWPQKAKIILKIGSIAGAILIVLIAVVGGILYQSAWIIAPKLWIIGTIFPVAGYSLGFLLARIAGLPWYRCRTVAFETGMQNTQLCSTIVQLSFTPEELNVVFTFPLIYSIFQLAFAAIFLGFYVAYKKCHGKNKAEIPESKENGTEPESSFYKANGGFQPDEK
Briefly: IBAT (h/m) assay, 3H-taurocholic acid uptake in human IBAT-overexpressing cells. The class given is cell-based. The conditions noted are these: 0.25 μM 3H-taurocholic acid and 5 μM cold taurocholic acid, 20 minutes. As to the method: 10,000 cells (Human or Mouse IBAT-overexpressing cells) were seeded in 96-wells plate (Corning CLS3809) in 200 μL MEM-alpha medium (Gibco 12571-063) supplemented with 10% FBS (Gibco 10438026) containing Puromycin (Gibco A1113803) (10 μg/mL) and incubated at 37° C. in 5% CO2 for 48 hours. After incubation, media was decanted from the wells and cells were washed two times with 300 μL of basal MEM-alpha medium (FBS-free). After decanting basal MEM-alpha medium each time, plates were tapped against paper towel to ensure maximum removal of residual media. Test inhibitor dilutions (highest test concentration being 10 μM, 3-fold serial dilution, 10 points) prepared in DMSO (Sigma D2650) were added in incubation mix (maintaining 0.2% final DMSO concentration) containing 0.25 μM 3H-taurocholic acid (ARC ART-1368) and 5 μM of cold taurocholic acid (Sigma T4009). 50 μL of incubation mix containing test inhibitors was then added to the wells (in duplicate) and the plates were incubated for 20 minutes in a CO2 incubator at 37° C. After incubation, the reaction was stopped by keeping the plates on ice water mix for 2-3 minutes and then the incubation mix was aspirated completely from the wells. The wells were washed two times with 250 μL of chilled unlabelled 1 mM taurocholic acid dissolved in HEPES (Gibco 15630080)-buffered (10 mM) HBSS (Gibco 14175079) (pH 7.4). The plates were tapped against a paper towel after every wash to ensure maximum removal of blocking buffer.
100 μL of MicroScint-20 (PerkinElmer 6013621) was added to the wells and kept overnight at room temperature before reading the plates in TopCount NXT™ Microplate Scintillation and Luminescence Counter from PerkinElmer under 3H Test protocol (set at 120 seconds reading time per well).
(§1) All test compounds were provided in powder form at room temperature. 10 mM DMSO stocks of the test compounds were prepared, aliquoted and stored at −20° C. From the 10 mM DMSO stock of the compounds, a 3-fold serial dilution in DMSO was prepared to get a total of 10 dilutions of the test compounds. 0.5 μL of this dilution in DMSO was added to 250 μL of FBS-free basal media containing 3H-taurocholic acid and cold taurocholic acid to prepare the incubation mixture.

The target of the next series is T2, hLBAT (Homo sapiens, UniProt Q14973).
T2 construct: expressed in transfected cells; kept under Geneticin selection
T2 sequence (Q14973 1-349): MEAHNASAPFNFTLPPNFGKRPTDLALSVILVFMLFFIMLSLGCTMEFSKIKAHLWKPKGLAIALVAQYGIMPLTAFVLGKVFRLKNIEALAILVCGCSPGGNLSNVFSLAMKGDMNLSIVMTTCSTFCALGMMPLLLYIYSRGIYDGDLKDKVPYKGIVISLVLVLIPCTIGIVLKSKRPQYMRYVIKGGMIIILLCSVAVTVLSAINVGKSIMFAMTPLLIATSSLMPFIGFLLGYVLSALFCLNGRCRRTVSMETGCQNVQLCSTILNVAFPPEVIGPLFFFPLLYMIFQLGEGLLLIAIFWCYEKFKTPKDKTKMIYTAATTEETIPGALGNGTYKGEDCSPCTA
In words: LBAT (h/m) assay, 3H-taurocholic acid uptake in human LBAT-overexpressing cells. The class given is cell-based. The conditions noted are these: 0.3 μM 3H-taurocholic acid and 7.5 μM cold taurocholic acid, 20 minutes. As to the method:
20,000 cells (Human or Mouse LBAT-overexpressing cells) were seeded in 96-wells plate (Corning CLS3809) in 100 μL MEM-alpha medium (Gibco 12571-063) supplemented with 10% FBS (Gibco 10438026) containing Geneticin (Gibco 10131-027) (1 mg/mL) and incubated at 37° C. in 5% CO2 for 24 hours. After incubation, media was decanted from the wells and cells were washed two times with 300 μL of basal MEM-alpha medium (FBS-free). After decanting basal MEM-alpha medium each time, plates were tapped against paper towel to ensure maximum removal of residual media. For human LBAT, incubation mix was prepared by adding test inhibitor dilutions (3-fold serial dilution in DMSO (Sigma D2650), 10 points) in MEM-alpha (without FBS) containing 0.3 μM 3H-taurocholic acid (ARC ART-1368) and 7.5 μM cold taurocholic acid (Sigma T4009) (maintaining 0.2% final DMSO concentration). For mouse LBAT, incubation mix was prepared by adding test inhibitor dilutions (3-fold serial dilution in DMSO, 10 points) in MEM-alpha (without FBS) containing 0.3 μM 3H-taurocholic acid and 25 μM cold taurocholic acid maintaining 0.2% final DMSO concentration). 50 μL of incubation mix containing test inhibitors was then added to the wells (in duplicate) and the plates were incubated for 20 minutes in a CO2 incubator at 37° C. After incubation, the reaction was stopped by keeping the plates on ice water mix for 2-3 minutes and then the incubation mix was aspirated completely from the wells. The wells were washed two times with 250 μL of chilled unlabelled 1 mM taurocholic acid dissolved in HEPES (Gibco 15630080)-buffered (10 mM) HBSS (Gibco 14175079) (pH 7.4). The plates were tapped against a paper towel after every wash to ensure maximum removal of blocking buffer.
100 μL of MicroScint-20 (PerkinElmer 6013621) was added to the wells and kept overnight at room temperature before reading the plates in TopCount NXT™ Microplate Scintillation and Luminescence Counter from PerkinElmer under 3H Test protocol (set at 120 seconds reading time per well, with normal plate orientation).
as §1

Series [2] in a line: Bidirectional permeability assay (Caco-2 cells). The conditions noted are these: human, Caco-2.
Experimental: as §2, §3, §4, §5, §6
On the set-up of series [3]: species or system mice (CD1). The conditions noted are these: mouse, in vivo. As to the method: Male mice (C57BL/6 or CD1) or Wistar rats of 8-9 weeks old were used. For each test compound, two groups of 3 animals each were used. One group was administered a single intravenous dose of 1 mg/kg (vehicle 100% DMSO) through the tail vein and the other group was administered a single oral dose of 10 mg/kg through gavage needle. The group that was administered an oral dose was fasted overnight. Blood samples were collected after 0.083, 0.25, 0.5, 1, 2, 4, 6, 8 and 24 hours following intravenous administration, and after 0.25, 0.5, 1, 2, 4, 6, 8 and 24 hours following oral administration. Blood samples were taken from saphenous vein. 0.2% EDTA was used as the anticoagulant. The samples were analyzed by a discovery grade bioanalytical method developed for the estimation of test compound in plasma, using an LC-MS/MS system.

The test system of series [4] is Caco-2 cells.
Experimental: as §2, §3, §4, §5, §6

As a reminder, the IC50 is the point on the concentration scale where inhibition reaches its midpoint. Read a low IC50 as higher potency. A word on the Papp A→B: it is how fast a substance crosses the layer from the apical side. A high value points to fast passage. The term Papp B→A denotes how fast a substance crosses the layer from the basolateral side.

Regarding `CCCC[C@@]1(CC)CN(c2ccccc2)c2cc(N(C)C)c(O/C=C/C(=O)O)cc2S(=O)(=O)N1.CCCC[C@]1(CC)CN(c2ccccc2)c2cc(N(C)C)c(O/C=C/C(=O)O)cc2S(=O)(=O)N1` (mixture of isomers) [Example 14, (S)-(E)-3-((3-butyl-7-(dimethylamino)-3-ethyl-1,1-dioxido-5-phenyl-2,3,4,5-tetrahydro-1,2,5-benzothiadiazepin-8-yl)oxy)acrylic acid and (R)-(E)-3-((3-butyl-7-(dimethylamino)-3-ethyl-1,1-dioxido-5-phenyl-2,3,4,5-tetrahydro-1,2,5-benzothiadiazepin-8-yl)oxy)acrylic acid], in the series on Caco-2 cells [1], the “Permeability (Caco-2) Papp A2B” value was determined as 110 nm/s and the “Permeability (Caco-2) Papp B2A” value came to 200 nm/s. At hIBAT, this molecule came in with an IC50 of 0.006 µM.
As to `CCCCC1(CC)CN(c2ccccc2)c2cc(N(C)C)c(O/C=C(\F)C(=O)O)cc2S(=O)(=O)N1` (centres unmarked) [Example 2, (Z)-3-((3-butyl-7-(dimethylamino)-3-ethyl-1,1-dioxido-5-phenyl-2,3,4,5-tetrahydro-1,2,5-benzothiadiazepin-8-yl)oxy)-2-fluoroacrylic acid], the 50% inhibitory concentration (IC50) at hLBAT is 0.124 µM; at hIBAT, 0.013 µM. In addition, the Papp A→B at 120 min, 10 µM in series [2] stood at 14 nm/s. In series [2], this molecule yielded an apparent permeability from basolateral to apical (Papp B→A) at 120 min, 10 µM of 24 nm/s.
The molecule `CCCCC1(CC)CN(c2ccc(F)cc2)c2cc(SC)c(O/C=C(\F)C(=O)O)cc2S(=O)(=O)C1` (centres unmarked) [Example 5, (Z)-3-((3-butyl-3-ethyl-5-(4-fluorophenyl)-7-(methylthio)-1,1-dioxido-2,3,4,5-tetrahydro-1,5-benzothiazepin-8-yl)oxy)-2-fluoroacrylic acid] yielded an IC50 against hLBAT of 0.014 µM. In series [2], the Papp A→B at 120 min, 10 µM came to 23 nm/s and the Papp B→A at 120 min, 10 µM stood at 20 nm/s. Besides, half-maximal inhibition on hIBAT (IC50) was put at 0.005 µM.
The molecule `CCCC1(CC)CN(c2ccccc2)c2cc(SC)c(O/C=C(\F)C(=O)O)cc2S(=O)(=O)C1` (centres unmarked) [Example 12, (Z)-3-((3-ethyl-7-(methylthio)-1,1-dioxido-5-phenyl-3-propyl-2,3,4,5-tetrahydrobenzo-1,5-thiazepin-8-yl)oxy)-2-fluoroacrylic acid] gave an IC50 against hLBAT of 0.012 µM. In series [2], this molecule displayed an apical-to-basolateral permeability (Papp A→B) at 120 min, 10 µM of 38 nm/s and a Papp B→A at 120 min, 10 µM of 41 nm/s. This molecule also showed an IC50 on hIBAT of 0.156 µM.
The like results for `CCCCC1(CC)CN(c2ccccc2)c2cc(N(C)C)c(O/C=C/C(=O)O)cc2S(=O)(=O)N1` (centres unmarked) [Example 13, (E)-3-((3-butyl-7-(dimethylamino)-3-ethyl-1,1-dioxido-5-phenyl-2,3,4,5-tetrahydro-1,2,5-benzothiadiazepin-8-yl)oxy)acrylic acid] were, in that order, 1.86 µM, 220 nm/s, 180 nm/s and 0.013 µM.
Consider “(S)-(E)-3-((3-butyl-3-ethyl-5-(4-fluorophenyl)-7-(methylthio)-1,1-dioxido-2,3,4,5-tetrahydro-1,5-benzothiazepin-8-yl)oxy)acrylic acid and (R)-(E)-3-((3-butyl-3-ethyl-5-(4-fluorophenyl)-7-(methylthio)-1,1-dioxido-2,3,4,5 tetrahydro-1,5-benzothiazepin-8-yl)oxy)acrylic acid [Example 10]”, for which, on hLBAT, half-maximal inhibition (IC50) was put at 0.113 µM. Moreover, the “Bioavailability (%)” value in series [3] was 41 (CD1) %. In addition, inhibition at hIBAT was half-maximal at 0.004 µM (IC50). Besides, in the series with Caco-2 cells [4], the “Permeability (Caco-2) Papp A2B” value came out at 100 nm/s and the “Permeability (Caco-2) Papp B2A” value was determined as 54 nm/s.
In turn, “(S)—(Z)-3-((3-butyl-3-ethyl-5-(4-fluorophenyl)-7-(methylthio)-1,1-dioxido-2,3,4,5-tetrahydro-1,5-benzothiazepin-8-yl)oxy)-2-fluoroacrylic acid and (R)—(Z)-3-((3-butyl-3-ethyl-5-(4-fluorophenyl)-7-(methylthio)-1,1-dioxido-2,3,4,5-tetrahydro-1,5-benzothiazepin-8-yl)oxy)-2-fluoroacrylic acid [Example 7]” displayed an IC50 at hLBAT of 0.014 µM. In addition, in the series on Caco-2 cells [1], the “Permeability (Caco-2) Papp A2B” value was 57 nm/s and the “Permeability (Caco-2) Papp B2A” value is 41 nm/s. The molecule also registered a concentration for half-maximal inhibition (IC50) against hIBAT of 0.005 µM.
With “(S)—(Z)-3-((3-butyl-7-(dimethylamino)-3-ethyl-1,1-dioxido-5-phenyl-2,3,4,5-tetrahydro-1,2,5-benzothiadiazepin-8-yl)oxy)-2-fluoroacrylic acid and (R)—(Z)-3-((3-butyl-7-(dimethylamino)-3-ethyl-1,1-dioxido-5-phenyl-2,3,4,5-tetrahydro-1,2,5-benzothiadiazepin-8-yl)oxy)-2-fluoroacrylic acid [Example 3]”, the figures for the IC50 against hLBAT and against hIBAT were 0.427 µM and 0.008 µM, respectively. Further, the “Permeability (Caco-2) Papp A2B” value in the series on Caco-2 cells [1] came to 18 nm/s. The “Permeability (Caco-2) Papp B2A” value with Caco-2 cells [1] stood at 22 nm/s.
